Data on six molecules can be found in patent publication US5962633A, “Cytotoxic T-lymphocyte antigen as cysteine protease inhibitor” (Bayer Corporation, priority 1995, dated 1999).

Assay [1] has as its system cartilage proteoglycan degradation. Conditions: 100 μM; cited from earlier work.
The target of the next assay is T1, human liver Cathepsin L (Homo sapiens, UniProt P07711).
T1 construct: from tissue; host or cells: human liver
Briefly: Cathepsin L fluorescence assay (hydrolysis of Z-Phe-Arg-AMC). Type of assay: biochemical. As for the experimental part:
A fluorescence based assay was set up according to Barrett and Kirschke (Barrett et al., 1981, Meth. in Enz., 80:535).
The enzyme sample was diluted with 750 μl of assay buffer (340 mM sodium acetate--60 mM acetic acid--4 mM disodium EDTA, pH 5.5 and 8 mM DTT added fresh) and various concentrations of CTAL-2β (a final concentration of 5-50 nM), was added. After an incubation period of 6 minutes at room temperature, 1500 μl of 0.1% Brij 35 was added. The substrate Z-Phe-Arg-AMC (AMC is aminomethyl-coumarin) was added at a final concentration of either 2.5 μM or 5.0 μM.
The fluoresence of the free aminomethyl-coumarin was measured in an SLM 4800S fluorimeter by excitation at 370 nm and emission at 432 nm over a six minute time period. […] In order to calculate the velocities, a linear least squares analysis was performed over the initial linear part of the data.
The Ki value is equal to the negative of the X-axis intercept that gives the same velocity at the different substrate concentrations if there is competitive inhibition (Dixon et al., 1979, Enzymes, 3rd Ed., Academic Press, New York, page, 365).
These peptides were tested for inhibition of Cathepsin L activity using the assays described previously. Briefly, Cathepsin L (19 pM final as determined by active site titration using E-64, Barret & Kirschke, 1991) was added to 750 μL of assay buffer consisting of […] sodium acetate--60 mM acetic acid (pH 5.5), 4 mM disodium EDTA, and 8 mM DTT. Peptides were added at concentrations ranging from on to 35 μM. […] The fluorescence of the free aminomethylcoumarin was measured in an SLM 4800s fluorimeter at excitation of 370 nm and an emission at 432 nm over a 6 minute time period. Fluorence was converted to μM AMC released by using a standard curve generated by plotting μM AMC vs. fluorescence, and plotted vs. time. […] The i.c. 50 values were determined from Dixon plots of the form V-/V+ (velocity without peptide/velocity with peptide) vs. peptide concentration. […]

Assay [2] deals with proteoglycan release from articular cartilage explants. Briefly: Micro organ culture assay (MOCA): IL-1 induced proteoglycan release from articular cartilage explants. Type of assay: cell-based, calf. Conditions: p117 10 μM (best concentration); IL-1 alpha 50 U/ml. An excerpt: The assay system used for testing the peptides for inhibitory activity of proteolglycan release is a micro organ culture assay (MOCA). Papain; cetyl pyridinium chloride and chondroitin sulfate type C was purchased from Sigma Chemical Co. (St. Louis, MO). Interleukin 1 alpha was purchased from Collaborative Research. ABCase, chrondroitinase, ABC lyase, and keratanase were obtained from ICL Na^35 SO4 was purchased from NEN.
Articular cartilage explants from calk knee joints were maintained in culture in DMEM medium containing 20 μCi/ml Na ^35 SO4 for 48 hours for the incorporation of label into newly synthesized proteoglycan (PG). The radiolabelled medium was then removed, the radiolabelled explants washed 3×30 ml cold DMEM and placed into a 96 well plate with or without IL-1 (Interleukin-1 alpha, 50 U/ml) and various concentrations of p117. The explants were incubated first for 24 hours in the presence of IL-1 in order to ensure initiation of IL-1 indicated auto-catalysis prior to the addition of various metalloprotease inhibitors for an additional 72 hours.
The newly synthesized radiolabelled proteoglycans released during the cultivation period were subjected to enzymatic digestion with papain. […] The filter was dried and counted after addition of 10 mls of scintillation cocktail (scintillant).

The next assay has as its target papain (Carica papaya, UniProt P00784). Particulars: read-out: i.c. 50 in Papain Assay; substrate Z-Phe-Arg-AMC; papain 33.3 ng/ml; Dixon plot V-/V+ vs. I. On the procedure:
The fluorescence was measured and the i.c. 50 was determined.

Read-outs that look alike come from different tables or passages of the source. No end group written: not given here.

T1 sequence (P07711 114-288 limits assumed): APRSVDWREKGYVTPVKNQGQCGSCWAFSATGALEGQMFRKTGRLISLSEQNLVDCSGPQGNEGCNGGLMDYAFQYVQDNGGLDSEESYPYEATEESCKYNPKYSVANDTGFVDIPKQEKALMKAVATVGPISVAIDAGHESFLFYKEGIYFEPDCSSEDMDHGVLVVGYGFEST
T1 sequence (P07711 292-333 limits assumed): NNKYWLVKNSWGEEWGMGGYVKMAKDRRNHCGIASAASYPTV
Chain of papain (P00784 134-345): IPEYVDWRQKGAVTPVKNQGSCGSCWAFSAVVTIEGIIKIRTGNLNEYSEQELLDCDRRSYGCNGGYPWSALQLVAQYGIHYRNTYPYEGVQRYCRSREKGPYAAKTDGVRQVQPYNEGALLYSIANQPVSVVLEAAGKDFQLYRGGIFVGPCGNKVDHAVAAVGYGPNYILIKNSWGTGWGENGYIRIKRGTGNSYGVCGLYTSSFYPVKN

Consider `CC(C)C[C@H](NC(=O)[C@H]1O[C@@H]1C(=O)O)C(=O)NCCCCN=C(N)N` (relative stereo) [E64, trans-epoxysuccinyl L-leucylamido-(4-guanido)butane], for which the “inhibition of IL-1 stimulated cartilage proteoglycan degradation” value in assay [1] is “did not work”.
On to `CC(C)CCNC(=O)[C@H](CC(C)C)NC(=O)[C@H]1O[C@@H]1C(=O)O` [Ep475], for which the “inhibition of IL-1 stimulated cartilage proteoglycan degradation” value in assay [1] is reported as “did not work”.
As to CRGEMAPDLPEYEDLG [p092], at human liver Cathepsin L (Cathepsin L 19 pM, 5.0 μM Z-Phe-Arg-NMec (AMC), 6 minute incubation at 25° C., read-out: i.c. 50 (synthetic peptides, Cathepsin L)), the IC50 is 41000 nM.
On to ENKKKIEAHNADYERGKTSFC [P089], for which the “inhibition of Cathepsin L at 10 uM peptide” value against human liver Cathepsin L (peptide 10 uM, printed in the i.c. 50 column) is given as 25%.
Regarding YSLDEERHRRLMWEENKKKIEAH [p117], in assay [2], the “% inhibition of proteoglycan release” value is listed as “about 30%”.

B1: monomeric CTLA-2β: monomeric form of recombinant CTLA-2β, mass 12.8 kd, reverse-phase purified (protein, UniProt P12400 1-113, looked up)
Protein CTLA-2-beta: MMSAAPSPDPSLDNEWKEWKTTFAKAYSLDEERHRRLMWEENKKKIEAHNADYERGKTSFYMGLNQFSDLTPEEFRTNCCGSSMCRGEMAPDLPEYEDLGKNSYLTPGRAQPE
In the case of B1, the IC50 in the assay with papain was found to be 14 nM; in the assay with human liver Cathepsin L (reverse-phase purified CTLA-2β, Dixon plot V-/V+ vs. I, substrate Z-Phe-Arg-AMC, read-out: i.c. 50 in Cathepsin L Assay), 18.2 nM.
